{"source": "patent US8822430B2", "about": "(Gilead Sciences, Inc., priority 2009, dated 2014)"}
{"system": "HCV 1b RLuc cells (dicistronic genotype 1b Con1 replicon)", "experiment": "Renilla luciferase (RLuc)-based HCV replicon reporter assay", "assay_type": "cell-based, HCV genotype 1b", "conditions": "HCV 1b RLuc replicon, 72 hours; read-out: Activity (antiviral potency [EC50])", "procedure": "(§1) Antiviral potency (EC50) was determined using a Renilla luciferase (RLuc)-based HCV replicon reporter assay. To perform the assay, HCV 1b RLuc cells (harboring a dicistronic genotype 1b Con1 replicon that encodes a RLuc reporter), or HCV 1a RLuc cells (harboring a dicistronic genotype 1a H77 replicon that encodes a RLuc reporter), were dispensed into 384-well plates. Compounds were re-suspended in DMSO at a concentration of 10 mM and serially diluted in DMSO using an automated pipeting instrument. Serially diluted compounds were mixed with cell culture media and added to the seeded cells. DMSO was used as a negative (solvent) control, and the protease inhibitor ITMN-191 was included at a concentration >100×EC50 as a positive control. 72 hours later, cells were lysed and Renilla luciferase activity quantified as recommended by the manufacturer (Promega-Madison, Wis.). Non-linear regression was performed to calculate EC50 values.\n(§2) Biological data (antiviral potency [EC50] was determined using a Renilla luciferase (RLuc)-based HCV replicon reporter assay—HCV 1b RLuc) for representative compounds of the invention is provided in the following table. These compounds can be prepared using procedures similar to those described above.", "units": {"EC50": "nM"}}
{"smiles": "COC(=O)N[C@H](C(=O)N1CCC[C@H]1c1ncc(-c2ccc(-c3ccc(-c4cnc([C@@H]5CSC(c6ccncc6)N5C(=O)OCc5ccccc5)[nH]4)cc3)cc2)[nH]1)C(C)C", "note": "(single isomer, unassigned) [drawing 1302]", "EC50": 0.0209}
{"system": "HCV 1b RLuc cells (dicistronic genotype 1b Con1 replicon)", "experiment": "Renilla luciferase (RLuc)-based HCV replicon reporter assay", "assay_type": "cell-based, HCV genotype 1b", "conditions": "Hepatitis C virus, 72 h, HCV 1b RLuc replicon, 72 hours; read-out: Activity (antiviral potency [EC50])", "procedure": "as §1, §2", "units": {"EC50": "nM"}}
{"smiles": "COC(=O)N[C@H](C(=O)N1CCC[C@H]1c1ncc(-c2ccc3c(c2)Sc2cc(-c4cnc([C@@H]5CCCN5C(=O)[C@@H](NC(=O)OC)C(C)C)[nH]4)ccc2S3)[nH]1)C(C)C", "EC50": 0.349}
{"smiles": "COC(=O)N[C@H](C(=O)N1CCC[C@H]1c1ncc(C23CCC(c4ccc(-c5cnc([C@@H]6CCCN6C(=O)[C@H](NC(=O)OC)C(C)C)[nH]5)cc4)(CC2)CC3)[nH]1)C(C)C", "EC50": 39.7}
{"smiles": "COC(=O)N[C@H](C(=O)N1CCC[C@H]1c1ncc(-c2ccc(-c3cnc([C@@H]4CCCN4C(=O)[C@@H](NC(=O)OC)C(C)C)[nH]3)cc2)[nH]1)C(C)C", "EC50": 1.22}
{"smiles": "COC(=O)N[C@H](C(=O)N1CCC[C@H]1c1ncc(-c2ccc3c(c2)COc2cc(-c4cnc([C@@H]5CCCN5C(=O)[C@@H](NC(=O)OC)C(C)C)[nH]4)ccc2-3)[nH]1)C(C)C", "EC50": 0.0131}
{"smiles": "COC(=O)N[C@H](C(=O)N1CCC[C@H]1c1nc2ccc(-c3cc4cc5sc(-c6ccc7nc([C@@H]8CCCN8C(=O)[C@@H](NC(=O)OC)C(C)C)[nH]c7c6)cc5cc4s3)cc2[nH]1)C(C)C", "EC50": 0.014}
{"smiles": "COC(=O)N[C@H](C(=O)N1CCC[C@H]1c1ncc(-c2ccc3cc(-c4ccc(-c5cnc([C@@H]6C[C@@H](C#N)CN6C(=O)[C@@H](NC(=O)OC)C(C)C)[nH]5)cc4)ccc3c2)[nH]1)C(C)C", "EC50": 0.0048}
{"smiles": "COC(=O)N[C@H](C(=O)N1CCC[C@H]1c1ncc(-c2ccc(-c3ccc(-c4ccc5nc([C@@H]6[C@H]7CC[C@H](C7)N6C(=O)[C@@H](NC(=O)OC)C(C)C)[nH]c5c4)cc3)cc2)[nH]1)C(C)C", "EC50": 0.006}
{"smiles": "COC(=O)N[C@@H](C)C(=O)N1CCC[C@H]1c1ncc(-c2ccc3c(c2)sc2cc(-c4cnc([C@@H]5[C@H]6CC[C@H](C6)N5C(=O)[C@H](C)NC(=O)OC)[nH]4)ccc23)[nH]1", "EC50": 0.0185}
{"smiles": "COC(=O)N[C@H](C(=O)N1CCC[C@H]1c1ncc(C#Cc2ccc(-c3ccc(-c4cnc([C@@H]5CCCN5C(=O)[C@@H](NC(=O)OC)C(C)C)[nH]4)cc3)cc2)[nH]1)C(C)C", "EC50": 0.0115}
{"smiles": "COC(=O)N[C@H](C(=O)N1CCC[C@H]1c1ncc(-c2ccc(-c3ccc4cc(-c5cnc([C@@H]6CCCN6C(=O)[C@@H](NC(=O)OC)C6CCOCC6)[nH]5)ccc4c3)cc2)[nH]1)C(C)C", "EC50": 0.0193}
{"smiles": "COC(=O)N[C@H](C(=O)N1CC2(CC2)C[C@H]1c1ncc(-c2ccc3cc(-c4ccc(-c5cnc([C@@H]6[C@H]7CC[C@H](C7)N6C(=O)[C@@H](NC(=O)OC)C(C)OC)[nH]5)cc4)ccc3c2)[nH]1)C(C)OC", "note": "(stereo partly shown)", "EC50": 0.0201}
{"smiles": "COC(=O)N[C@@H](C)C(=O)N1[C@@H]2CC[C@@H](C2)[C@H]1c1nc2ccc(-c3ccc4c(c3)C(F)(F)c3cc(-c5cnc([C@@H]6CC7(CC7)CN6C(=O)[C@@H](NC(=O)OC)C(C)C)[nH]5)ccc3-4)cc2[nH]1", "EC50": 0.0036}
{"smiles": "COC(=O)N[C@H](C(=O)N1[C@@H]2CC[C@@H](C2)[C@H]1c1nc2ccc(-c3ccc4c(c3)C(=O)c3cc(-c5cnc([C@@H]6CC7(CC7)CN6C(=O)[C@H](NC(=O)OC)C(C)C)[nH]5)ccc3-4)cc2[nH]1)C(C)C", "EC50": 0.005}
{"smiles": "COC(=O)N[C@H](C(=O)N1CCC[C@H]1c1ncc(-c2ccc(-c3cccc4c(-c5ccc(-c6cnc([C@@H]7CCCN7C(=O)[C@@H](NC(=O)OC)C(C)C)[nH]6)cc5)cccc34)cc2)[nH]1)C(C)C", "EC50": 26.7}
{"smiles": "COC(=O)N[C@H](C(=O)N1CCC[C@H]1c1ncc(-c2ccc(-c3ccc(-c4cnc([C@@H]5CCCN5C(=O)[C@@H](NC(=O)OC)C(C)C)[nH]4)cc3)cc2)[nH]1)C(C)C", "EC50": 0.0719}
{"smiles": "COC(=O)N[C@H](C(=O)N1CCC[C@H]1c1ncc(-c2ccc3cc(-c4ccc(-c5cnc([C@@H]6CCCN6C(=O)[C@H](NC(=O)OC)c6cccs6)[nH]5)cc4)ccc3c2)[nH]1)C(C)C", "EC50": 0.0262}
{"smiles": "COC(=O)N[C@@H](C)C(=O)N1[C@@H]2CC[C@@H](C2)[C@H]1c1ncc(-c2ccc3cc(-c4ccc(-c5cnc([C@@H]6CCCN6C(=O)[C@@H](NC(=O)OC)C(C)C)[nH]5)cc4)ccc3c2)[nH]1", "EC50": 0.016}
{"smiles": "COC(=O)N[C@H](C(=O)N1CCC[C@H]1c1ncc(-c2ccc(C#Cc3ccc(-c4cnc([C@@H]5CN(C(C)=O)CCN5C(=O)[C@@H](NC(=O)OC)C(C)C)[nH]4)cc3)cc2)[nH]1)C(C)C", "EC50": 0.204}
{"smiles": "COC(=O)N[C@H](C(=O)N1CCC[C@H]1c1ncc(C#Cc2ccc(-c3ccc4nc([C@@H]5CCCN5C(=O)[C@@H](NC(=O)OC)C(C)C)[nH]c4c3)cc2)[nH]1)C(C)C", "EC50": 0.0168}
{"smiles": "COC(=O)N[C@@H](C(=O)N1CCC[C@@H]1c1ncc(-c2ccc3c(c2)S(=O)(=O)c2cc(-c4cnc([C@H]5CCCN5C(=O)[C@H](NC(=O)OC)C(C)C)[nH]4)ccc2-3)[nH]1)C(C)C", "EC50": 0.0535}
{"smiles": "COC(=O)N[C@H](C(=O)N1CCC[C@H]1c1ncc(-c2ccc3c(c2)C(F)(F)c2cc(-c4ccc5nc([C@@H]6[C@H]7CC[C@H](C7)N6C(=O)[C@@H](NC(=O)OC)C(C)C)[nH]c5c4)ccc2-3)[nH]1)C(C)C", "EC50": 0.0029}
{"smiles": "COC(=O)N[C@@H](Cc1ccccc1)C(=O)N1CCC[C@H]1c1ncc(-c2ccc(-c3ccc4cc(-c5cnc([C@@H]6CCCN6C(=O)[C@@H](NC(=O)OC)C(C)C)[nH]5)ccc4c3)cc2)[nH]1", "EC50": 0.0181}
{"smiles": "COC(=O)NC(C(=O)N1CCC[C@H]1c1ncc(-c2ccc(-c3ccc4cc(-c5cnc([C@@H]6CCCN6C(=O)[C@@H](NC(=O)OC)C(C)C)[nH]5)ccc4c3)cc2)[nH]1)c1ccsc1", "note": "(stereo partly shown)", "EC50": 0.0197}
{"smiles": "CCC(=O)N[C@H](C(=O)N1CC2(CC2)C[C@H]1c1ncc(-c2ccc(-c3ccc(-c4cnc([C@@H]5CCCN5C(=O)[C@@H](NC(=O)OC)C(C)C)[nH]4)cc3)cc2)[nH]1)C(C)C", "EC50": 0.013}
{"smiles": "COC(=O)N[C@H](C(=O)N1CCC[C@H]1c1ncc(-c2ccc(-c3ccc(-c4cnc(CN5CC(=O)N[C@@H](C(C)C)C5=O)[nH]4)cc3)cc2)[nH]1)C(C)C", "EC50": 0.513}
{"smiles": "COC(=O)N[C@H](C(=O)N1CCC[C@H]1c1nc2ccc(-c3ccc(-c4ccc(-c5cnc([C@@H]6[C@H]7CC[C@H](C7)N6C(=O)[C@@H](NC(=O)OC)C(C)C)[nH]5)cc4)cc3)cc2[nH]1)C(C)C", "EC50": 0.0213}
{"smiles": "COC(=O)N[C@H](C(=O)N1CCC[C@H]1c1ncc(-c2ccc(-c3ccc(-c4cnc([C@@H]5CN(S(C)(=O)=O)CN5C(=O)[C@@H](NC(=O)OC)C(C)C)[nH]4)cc3)cc2)[nH]1)C(C)C", "EC50": 0.0383}
{"smiles": "COC(=O)N[C@H](C(=O)N1CCC[C@H]1c1ncc(-c2ccc3c(c2)oc2cc(-c4ccc5nc([C@@H]6CCCN6C(=O)[C@@H](NC(=O)OC)C(C)C)[nH]c5c4)ccc23)[nH]1)C(C)C", "EC50": 0.0075}
{"smiles": "COC(=O)N[C@H](C(=O)N1CCC[C@H]1c1ncc(-c2ccc(C#Cc3ccc(-c4cnc([C@@H]5CN(S(=O)(=O)N(C)C)CCN5C(=O)[C@@H](NC(=O)OC)C(C)C)[nH]4)cc3)cc2)[nH]1)C(C)C", "EC50": 0.053}
{"smiles": "COC(=O)N[C@H](C(=O)N1CCC[C@H]1c1ncc(-c2ccc(Oc3ccc(-c4cnc([C@@H]5CCCN5C(=O)[C@@H](NC(=O)OC)C(C)C)[nH]4)cc3)cc2)[nH]1)C(C)C", "EC50": "> 21.3"}
{"smiles": "COC(=O)N[C@H](C(=O)N1CCC[C@H]1c1ncc(C#Cc2cccc3c(C#Cc4cnc([C@@H]5CCCN5C(=O)[C@@H](NC(=O)OC)C(C)C)[nH]4)cccc23)[nH]1)C(C)C", "EC50": 0.0142}
{"smiles": "COC(=O)N[C@H](C(=O)N1CCC[C@H]1c1ncc(-c2ccc(-c3ccc(-c4ccc(-c5cnc([C@@H]6CCCN6C(=O)[C@@H](NC(=O)OC)C(C)C)[nH]5)cc4)s3)cc2)[nH]1)C(C)C", "EC50": 0.0989}
{"smiles": "COC(=O)N[C@H](C(=O)N1CC2(CC2)C[C@H]1c1ncc(-c2ccc3c(c2)oc2cc(-c4ccc5nc([C@@H]6[C@H]7CC[C@H](C7)N6C(=O)[C@@H](NC(=O)OC)C(C)C)[nH]c5c4)ccc23)[nH]1)C(C)C", "EC50": 0.0041}
{"smiles": "COC(=O)N[C@H](C(=O)N1CCC[C@H]1c1ncc(-c2ccc3cc(-c4ccc(-c5ccc6nc([C@@H]7[C@H]8CC[C@H](C8)N7C(=O)[C@@H](NC(=O)OC)C(C)C)[nH]c6c5)cc4)ccc3c2)[nH]1)C(C)C", "EC50": 0.077}
{"smiles": "COC(=O)N[C@H](C(=O)N1CCC[C@H]1c1ncc(-c2ccc3cc(-c4ccc(-c5cnc([C@@H]6C[C@H](C#N)CN6C(=O)[C@@H](NC(=O)OC)C(C)C)[nH]5)cc4)ccc3c2)[nH]1)C(C)C", "EC50": 0.0067}
{"smiles": "COC(=O)N[C@H](C(=O)N1CCC[C@H]1c1ncc(-c2ccc3cc(-c4ccc(-c5cnc([C@@H]6C[C@H](CNS(C)(=O)=O)CN6C(=O)[C@@H](NC(=O)OC)C(C)C)[nH]5)cc4)ccc3c2)[nH]1)C(C)C", "EC50": 0.12}
{"smiles": "COC(=O)N[C@H](C(=O)N1CCC[C@H]1c1ncc(-c2ccc3cc4cc(-c5cnc([C@@H]6CCCN6C(=O)[C@@H](NC(=O)OC)C(C)C)[nH]5)ccc4cc3c2)[nH]1)C(C)C", "EC50": 0.007}
{"smiles": "COC(=O)N[C@H](C(=O)N1CCC[C@H]1c1ncc(-c2ccc(-c3ccc(-c4cnc([C@@H]5C[C@H](COC(F)F)CN5C(=O)[C@@H](NC(=O)OC)C(C)C)[nH]4)cc3)cc2)[nH]1)C(C)C", "EC50": 0.015}
{"smiles": "COC(=O)N[C@H](C(=O)N1CCC[C@H]1c1ncc(-c2ccc3cc(-c4ccc(-c5cnc([C@@H]6C[C@@H](c7ccccc7)CN6C(=O)[C@@H](NC(=O)OC)C(C)C)[nH]5)cc4)ccc3c2)[nH]1)C(C)C", "EC50": 0.0724}
